Like-named read-outs stand apart in the source and are kept apart here.
Experiments:
[1] = Stability tests of (5+5) bis bortezomib tartrate III in solid form (HPLC purity); assay type: physicochemical
Experimental: (5+5) Bis-bortezomib tartrate III, prepared as described in example 2, and the solid formulations containing (5+5) bis-bortezomib tartrate III, prepared as described in examples 3 and 4, were put into glass vials with screw plug and hermetic closure and undergone stability tests under the following conditions: […]
temperature 25° C. and 60% relative humidity temperature 40° C. and 75% relative humidity
The HPLC method used for the purity analysis was the following:
• UV Detector: SPD 10AVP • auto-sampler: SIL-ADVP Wavelength: 270 nm Column: Biobasic-18-Peek Bio-inert • length: 250 mm • I.D.: 2.1 mm • Particle size: 5 μm • (thermo scientific Cat.N.72105-252168 or equivalent) Injection: 3 μl Column temperature: room Sampler temperature: room Flow rate: 0.3 ml/min Mobile phase: eluent A: 95% gradient • Eluent B: 5% Analysis time: 60 minutes Eluent A: 0.1% v/v formic acid in water for HPLC Eluent B: 0.1% v/v formic acid in acetonitrile for gradient Diluent: acetonitrile:water for HPLC=80:20 Blank: diluent Gradient program:
Weigh about 50 mg sample and transfer the substance into a 100 ml flask. Dissolve and bring to volume with diluent. Sonicate up to complete dissolution (analyte content about 0.5 mg/ml).
Calculate the percentage of each known and unknown impurity as percentage area by using the following formula (peaks of the blank and peaks with area <0.05% to be ignored).
[formula] Axc: peak area of the impurity in the sample Atot: total area of the peaks of the chromatogram Purity(A%)=100−Σ1Imp (i) The peak corresponding to bortezomib is eluted at 28 minutes±2.
In the following tables the data obtained from the stability tests after two and four weeks are reported.

[2] = Stability tests of powders stored at 40° C. for months (examples 12, 14, 17), HPLC purity; assay type: physicochemical; settings: powder
Experimental: Samples of the powder obtained in example 11 were stored in glass vials with screw cap and hermetic closure and undergone stability tests at 40° C. and 75% relative humidity. Their purity was checked during the time. In the following table the purity data of the samples under stability test obtained by using the HPLC method described in example 9 are reported.
Samples of the powder obtained in example 13 were stored in glass vials with screw cap and hermetic closure and undergone stability tests at 40° C. and 75% relative humidity. In the following table the purity data obtained by using the HPLC method described in example 9 are reported.
In the following table the data of the HPLC purity analysis of the powder at time 0 and after 1 month, 2 months and 3 months of storage in glass vials with screw plug and hermetic closure at 40° C. are reported.

[3] = cited from earlier work
[4] = 2 weeks 25° C., 60% relative humidity
[5] = 2 weeks 40° C., 75% relative humidity
[6] = 2 months 40° C. (75% relative humidity stated in examples 12, 14)
[7] = 3 months 40° C. (75% relative humidity stated in examples 12, 14)
[8] = 1 month 40° C. (75% relative humidity stated in examples 12, 14)

CC(C)C[C@H](NC(=O)C(Cc1ccccc1)NC(=O)c1cnccn1)B1OC(=O)C(C2OB([C@H](CC(C)C)NC(=O)C(Cc3ccccc3)NC(=O)c3cnccn3)OC2=O)O1 (stereo partly drawn) [Example 2, (5+5) Bis-Bortezomib L-Tartrate III]
HPLC peak area, relative retention time 0.91 (retention time 24.57 min) [1, 4]: 0.02 A%
HPLC peak area, relative retention time 0.95 (retention time 25.78 min) [1, 4]: 0.02 A%
HPLC peak area, relative retention time 1.07 (retention time 28.77 min) [1, 4]: 0.01 A%
HPLC purity, peak at relative retention time 1.00 (retention time 27.00 min) [1, 4]: 99.94 A%
HPLC peak area, relative retention time 0.95 (retention time 25.78 min) [1, 5]: 0.18 A%
HPLC peak area, relative retention time 1.07 (retention time 28.77 min) [1, 5]: 0.01 A%
HPLC purity, peak at relative retention time 1.00 (retention time 27.00 min) [1, 5]: 99.82 A%
HPLC peak area, relative retention time 0.91 (retention time 24.57 min) ([1]; t0): 0.02 A%
HPLC peak area, relative retention time 0.95 (retention time 25.78 min) ([1]; t0): 0.07 A%
HPLC peak area, relative retention time 1.07 (retention time 28.77 min) ([1]; t0): 0.01 A%
HPLC purity, peak at relative retention time 1.00 (retention time 27.00 min) ([1]; t0): 99.90 A%

CC(C)C[C@H](NC(=O)C(Cc1ccccc1)NC(=O)c1cnccn1)B1OC(=O)C(C2OB([C@H](CC(C)C)NC(=O)C(Cc3ccccc3)NC(=O)c3cnccn3)OC2=O)O1 (stereo partly drawn) [Example 11, (5+5) Bis Bortezomib L-Tartrate III]
HPLC peak area, relative retention time 0.87 (retention time 23.58 min) [2, 6]: 0.15 A%
HPLC peak area, relative retention time 1.037 (retention time 28.00 min) [2, 6]: 0.02 A%
HPLC peak area, relative retention time 1.07 (retention time 28.77 min) [2, 6]: 0.04 A%
HPLC purity, peak at relative retention time 1.00 (retention time 27.00 min) [2, 6]: 99.67 A%
HPLC peak area, relative retention time 0.87 (retention time 23.58 min) [2, 7]: 0.66 A%
HPLC peak area, relative retention time 0.95 (retention time 25.78 min) [2, 7]: 0.07 A%
HPLC peak area, relative retention time 1.037 (retention time 28.00 min) [2, 7]: 0.38 A%
HPLC peak area, relative retention time 1.07 (retention time 28.77 min) [2, 7]: 0.18 A%
HPLC purity, peak at relative retention time 1.00 (retention time 27.00 min) [2, 7]: 98.72 A%
HPLC peak area, relative retention time 1.037 (retention time 28.00 min) ([2]; t0): 0.01 A%
HPLC purity, peak at relative retention time 1.00 (retention time 27.00 min) ([2]; t0): 99.99 A%

CC(C)C[C@H](NC(=O)[C@H](Cc1ccccc1)NC(=O)c1cnccn1)B1OC(=O)[C@@H]([C@H]2OB([C@H](CC(C)C)NC(=O)[C@H](Cc3ccccc3)NC(=O)c3cnccn3)OC2=O)O1 [Example 13, (5+5) Bis Bortezomib L-Tartrate III]
HPLC peak area, relative retention time 0.87 (retention time 23.58 min) [2, 8]: 0.05 A%
HPLC peak area, relative retention time 1.037 (retention time 28.00 min) [2, 8]: 0.02 A%
HPLC purity, peak at relative retention time 1.00 (retention time 27.00 min) [2, 8]: 99.93 A%
HPLC peak area, relative retention time 0.87 (retention time 23.58 min) [2, 6]: 0.61 A%
HPLC peak area, relative retention time 0.95 (retention time 25.78 min) [2, 6]: 0.07 A%
HPLC peak area, relative retention time 1.037 (retention time 28.00 min) [2, 6]: 0.34 A%
HPLC peak area, relative retention time 1.07 (retention time 28.77 min) [2, 6]: 0.13 A%
HPLC purity, peak at relative retention time 1.00 (retention time 27.00 min) [2, 6]: 98.85 A%
HPLC peak area, relative retention time 0.87 (retention time 23.58 min) [2, 7]: 0.07 A%
HPLC peak area, relative retention time 0.95 (retention time 25.78 min) [2, 7]: 0.04 A%
HPLC peak area, relative retention time 1.037 (retention time 28.00 min) [2, 7]: 0.02 A%
HPLC purity, peak at relative retention time 1.00 (retention time 27.00 min) [2, 7]: 99.85 A%
HPLC peak area, relative retention time 0.87 (retention time 23.58 min) ([2]; t0): 0.02 A%
HPLC peak area, relative retention time 1.037 (retention time 28.00 min) ([2]; t0): 0.02 A%
HPLC purity, peak at relative retention time 1.00 (retention time 27.00 min) ([2]; t0): 99.94 A%

CC(C)C[C@H](NC(=O)[C@H](Cc1ccccc1)NC(=O)c1cnccn1)B(O)O [bortezomib]
time for which stable on storage ([3]; stored at 2-8° C.): 3-6 months
HPLC purity ([3]; stored at −20° C. for more than 2 years): > 97%
time for which stable on storage ([3]; stored at −20° C.): more than 2 years
